Experimental data from patent US20030074682A1, “Isolation, characterization, and use of a novel teleost potassium channel” (priority 2001, published 2003).
Where two headings read alike, the source gives them in different places.

Tests used:
zebrafish larvae = conditions: for "real" arrhythmia (atrium and ventricle beating very irregularly): bathing 6 hours; for induction of 2:1 atrioventricular block (atrium beats twice while the ventricle beats once): wild-type larvae bathed in drug, terfenadine 10 μM, astemizol 1 μM, diphenhydramine 100 μM, haloperidol 2 μM, droperidol 50 μM, thioridazin 10 μM, pimozide 0.5 μM, cisapride 5 μM; for arrest of the atrial and ventricular beat: 1 hour incubation
Protocol: About 50 zebrafish larvae were incubated for 2-7 d at 22-28° C. in petri dishes filled with 30 ml embryo medium.
At the day of the experiment 10 larvae were transferred to small petri dishes filled with 10 ml embryo medium, 0.5 ml MESAB solution (0.2% ethyl-m-aminobenzoate methane-sulfonate+1% Na2HPO4×2H2O, pH 7.2) and 10 μl of the respective drug (or +10 μl of a second drug) added from a 1000-fold stock solution prepared with DMSO, these three components were previously mixed in 50 ml plastic tubes (controls only receive 10 or 20 μl DMSO).
At certain time points the contractility of the heart and blood flow was monitored, and the heart rate was determined by counting the heart beat with the aid of a stereo-microscope.
In order to evaluate if zebrafish is a suitable model organism to study drug-induced QT-prolongation we investigated the effect of known QT-prolonging medicaments on the heart beat rate of zebrafish larvae. Compounds were added to the media in which the larvae were bathed and the heart beat rate was recorded by microscopy.

[1] = target: rapidly activating delayed rectifier current K^+ current IKr (Homo sapiens, UniProt Q12809); conditions: cited from earlier work
ZERG = test: Antisense ZERG-knockdown: PMO injected into yolk of zebrafish embryos at the 1-4-cell stage, heart function and morphology scored; assay type: in vivo
From the text: In one embodiment, preferred PMOs comprise a sequence complementary to contiguous nucleotides within nucleotides 1-150 of SEQ ID NO:1; an exemplary PMO sequence is presented in SEQ ID NO:3. As further detailed in the Examples, we generated an antisense PMO corresponding to the first 24 nucleotides of the ZERG coding sequence, as presented in SEQ ID NO:3, and injected these into the yolk of zebrafish embryos at the 1-4 cell stage, according to standard protocols. […] Thus, antisense PMOs may be used to knockdown the ZERG protein, and to phenocopy the breakdance mutant, as well as QT-prolonging drug-treated larvae.
24-mer antisense PMOs targeting the 5′ prime region of ZERG (SEQ ID NO:3; start 0-24: GACATGTCCGCGGCGCACGGGCAT) were injected at the 1-4-cell stage into the yolk of zebrafish embryos according to published methods (Nasevicius and Ekker, 2000). The PMO was obtained from AVI Biopharma (Corvallis, Oreg.) and was injected at 3, 6 and 9 ng per embryo, we used 50 embroys per concentration. The experiment was repeated five times. Heart function and morphological anaylsis of larvae were scored one to 5 d later. Controls included the injection of only the injection buffer.

[2] = cardiac myocytes, electrophysiology
[3] = 6 ng PMO per embryo, 2 days post-fertilization

Chain of rapidly activating delayed rectifier current K^+ current IKr (Q12809 whole entry): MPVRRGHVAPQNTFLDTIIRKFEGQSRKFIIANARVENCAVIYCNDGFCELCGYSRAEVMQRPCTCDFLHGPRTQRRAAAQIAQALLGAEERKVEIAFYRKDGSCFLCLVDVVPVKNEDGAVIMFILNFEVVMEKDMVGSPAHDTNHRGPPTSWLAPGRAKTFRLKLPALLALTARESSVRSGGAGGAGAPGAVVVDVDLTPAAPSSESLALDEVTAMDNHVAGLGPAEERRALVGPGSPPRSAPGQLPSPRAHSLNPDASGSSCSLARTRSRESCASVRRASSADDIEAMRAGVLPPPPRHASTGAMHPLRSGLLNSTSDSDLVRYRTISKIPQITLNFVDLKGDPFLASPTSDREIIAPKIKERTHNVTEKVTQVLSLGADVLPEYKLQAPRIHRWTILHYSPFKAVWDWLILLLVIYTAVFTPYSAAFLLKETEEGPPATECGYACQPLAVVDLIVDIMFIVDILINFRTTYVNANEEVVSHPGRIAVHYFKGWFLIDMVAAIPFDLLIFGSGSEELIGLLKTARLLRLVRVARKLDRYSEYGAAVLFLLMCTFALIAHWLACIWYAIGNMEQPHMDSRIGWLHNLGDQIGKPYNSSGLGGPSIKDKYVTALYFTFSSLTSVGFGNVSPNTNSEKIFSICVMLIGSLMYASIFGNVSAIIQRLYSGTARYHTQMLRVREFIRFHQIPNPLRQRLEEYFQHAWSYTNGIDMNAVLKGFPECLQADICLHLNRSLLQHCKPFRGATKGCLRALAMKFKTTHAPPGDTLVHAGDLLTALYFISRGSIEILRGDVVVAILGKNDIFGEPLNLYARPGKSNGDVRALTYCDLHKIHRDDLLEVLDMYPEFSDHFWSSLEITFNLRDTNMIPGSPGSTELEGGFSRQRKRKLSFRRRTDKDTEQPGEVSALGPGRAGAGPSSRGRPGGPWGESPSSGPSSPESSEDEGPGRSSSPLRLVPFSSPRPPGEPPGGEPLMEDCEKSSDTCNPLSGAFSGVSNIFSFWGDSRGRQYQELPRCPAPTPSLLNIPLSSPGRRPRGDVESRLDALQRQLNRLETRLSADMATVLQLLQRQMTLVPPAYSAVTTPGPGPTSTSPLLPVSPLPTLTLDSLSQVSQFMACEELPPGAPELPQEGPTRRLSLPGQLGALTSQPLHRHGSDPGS

COc1ccc(CCN2CCC(Nc3nc4ccccc4n3Cc3ccc(F)cc3)CC2)cc1 [astemizole]
incubation time until 2:1 heart beat occurred (zebrafish larvae; 100 nM): 6 h | "real" arrhythmia (atrium and ventricle beating very irregularly) (zebrafish larvae; 200 nM): arrhythmia occurred | induction of 2:1 atrioventricular block (atrium beats twice while the ventricle beats once) (zebrafish larvae): induced a 2:1 atrioventricular block

COc1cc(N)c(Cl)cc1C(=O)NC1CCN(CCCOc2ccc(F)cc2)CC1OC (stereo not shown) [cisapride]
block of IKr [1, 2]: block | "real" arrhythmia (atrium and ventricle beating very irregularly) (zebrafish larvae; 10 μM): arrhythmia occurred | arrest of the atrial and ventricular beat (zebrafish larvae; 25 μM): arrest of the atrial and ventricular beat | induction of 2:1 atrioventricular block (atrium beats twice while the ventricle beats once) (zebrafish larvae): induced a 2:1 atrioventricular block

CN(C)CCOC(c1ccccc1)c1ccccc1 [diphenhydramine]
induction of 2:1 atrioventricular block (atrium beats twice while the ventricle beats once) (zebrafish larvae): induced a 2:1 atrioventricular block

O=C(CCCN1CC=C(n2c(=O)[nH]c3ccccc32)CC1)c1ccc(F)cc1 [droperidol]
induction of 2:1 atrioventricular block (atrium beats twice while the ventricle beats once) (zebrafish larvae): induced a 2:1 atrioventricular block

NC1=NCC2c3ccccc3Cc3ccccc3N12 (stereo not shown) [epinastine]
effect on heart beat rate (zebrafish larvae; up to 250 μM): did not affect heart beat rate

O=C(CCCN1CCC(O)(c2ccc(Cl)cc2)CC1)c1ccc(F)cc1 [haloperidol]
block of IKr [1]: block | "real" arrhythmia (atrium and ventricle beating very irregularly) (zebrafish larvae; 10 μM): arrhythmia occurred | induction of 2:1 atrioventricular block (atrium beats twice while the ventricle beats once) (zebrafish larvae): induced a 2:1 atrioventricular block

O=c1[nH]c2ccccc2n1C1CCN(CCCC(c2ccc(F)cc2)c2ccc(F)cc2)CC1 [pimozide]
block of IKr [1]: block | incubation time until 2:1 heart beat occurred (zebrafish larvae; 200 nM): 3 h | arrest of the atrial and ventricular beat (zebrafish larvae; 10 μM): arrest of the atrial and ventricular beat | induction of 2:1 atrioventricular block (atrium beats twice while the ventricle beats once) (zebrafish larvae): induced a 2:1 atrioventricular block

CC(C)NCC(O)c1ccc(NS(C)(=O)=O)cc1 (stereo not shown) [sotalol]
block of IKr [1, 2]: block

CC(C)(C)c1ccc(C(O)CCCN2CCC(C(O)(c3ccccc3)c3ccccc3)CC2)cc1 (stereo not shown) [terfenadine]
induction of 2:1 atrioventricular block (atrium beats twice while the ventricle beats once) (zebrafish larvae): induced a 2:1 atrioventricular block

CSc1ccc2c(c1)N(CCC1CCCCN1C)c1ccccc1S2 (stereo not shown) [thioridazine]
"real" arrhythmia (atrium and ventricle beating very irregularly) (zebrafish larvae; 10 μM): arrhythmia occurred | induction of 2:1 atrioventricular block (atrium beats twice while the ventricle beats once) (zebrafish larvae): induced a 2:1 atrioventricular block

PMO: 24-mer antisense PMO targeting the 5′ region of ZERG (SEQ ID NO:3): GACATGTCCGCGGCGCACGGGCAT (antisense GACATGTCCGCGGCGCACGGGCAT; all phosphorodiamidate morpholino (PMO))
larvae appearing wild-type (ZERG; 3 ng PMO per embryo): approximately 5% | larvae showing a slight bradycardia (ZERG; 3 ng PMO per embryo): approximately 81% | larvae showing the 2:1 phenotype (ZERG; 3 ng PMO per embryo): approximately 18% | bradycardia and other visible abnormalities (ZERG; 6 ng PMO per embryo): All larvae showed a slight bradycardia and no other visible abnormalities | embryos showing irregular arrhythmia, atrial beat rate strongly reduced and uncoordinated (ZERG; [3]): 28% | embryos showing the 2:1 heart beat (ZERG; [3]): 67% | larvae with a 2:1 heart beat (ZERG; 6 ng PMO per embryo, day 3): 10% | phenotype compared with wildtype (ZERG; 6 ng PMO per embryo, day 5): all larvae were indistinguishable from wildtype larvae | day of death after strong necrosis beginning with day 4 (ZERG; 9 ng PMO per embryo): ~6 days | heart morphology (ZERG; 9 ng PMO per embryo): changed to a pattern known for dilative cardiomyopathy | larvae with strongly reduced heart beat rate and contractility, both chambers beating 1:1, circulation strongly reduced or absent (ZERG; 9 ng PMO per embryo): 90% | edema and blood accumulation (ZERG; 9 ng PMO per embryo, day 2): heart edema and blood accumulated on the yolk sac | PMO-injected larvae displaying the 2:1 phenotype (ZERG; injected into yolk at the 1-4 cell stage, dose not given): About 90%
